Here are results for 19 compounds from patent US20240376085A1 (Janssen Pharmaceutica NV, priority 2021, published 2024).

One test concerns the target T1, IL-17A : IL-17RA binding (Homo sapiens, UniProt Q16552, K93Q).
T1 construct: Name: IL-17A-Flag
Briefly: IL-17A(FLAG-tagged):IL-17RA(His-tagged) binding disruption Eu-HTRF assay, Protocol 1. Particulars: FLAG-IL-17A 2.5 nM at 2x final concentration; average if tested more than once. The gist of the method: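 IC50 came from a one-site competition fit of the acceptor/donor (665/620 nm) HTRF ratio. His-tagged IL-17RA, Eu-anti-FLAG and D2-anti-His were added after a 1 h rt compound preincubation with FLAG-tagged IL-17A dimer in PBS/0.01% Triton X-100, followed by 2 h at rt before reading.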
On the technique in general: TR-FRET usually uses a lanthanide donor and a delayed reading to cut background.

Test [1] concerns IL-17A-induced G-CSF production in human normal keratinocyte (NHK). Briefly: NHK assay: IL-17A-induced G-CSF production in normal human keratinocytes. The test is classed as cell-based. Conditions: 24 h, IL-17A 5 ng/mL, average if tested more than once. The method, boiled down: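 Stimulus rhIL-17A 5 ng/mL final, premixed 1 h rt with compound; adult NHK, 5% FBS, 0.2% DMSO. Viability by CellTiter-Glo vs DMSO.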

T1 sequence (Q16552 with tags, fused parts or gaps K93Q): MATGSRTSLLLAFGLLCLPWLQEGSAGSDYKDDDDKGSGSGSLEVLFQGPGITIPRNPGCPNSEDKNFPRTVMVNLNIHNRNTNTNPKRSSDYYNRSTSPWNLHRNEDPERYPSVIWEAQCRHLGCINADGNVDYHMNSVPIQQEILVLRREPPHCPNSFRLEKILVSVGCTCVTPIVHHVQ

As a reminder, the IC50 is the concentration at which inhibition is half-maximal. Higher therefore signals weaker potency in that assay. Consider `Cc1nonc1C(=O)N[C@@H](COC(C)(C)C(F)(F)F)c1nc2ccc([C@H](NC(=O)CC3CC(F)(F)C3)C3CC3)cc2[nH]1` (relative stereo) [Example 161, N—((R*)-1-(6-((R)-Cyclopropyl(2-(3,3-difluorocyclobutyl)acetamido)methyl)-1H-benzo[d]imidazol-2-yl)-2-((1,1,1-trifluoro-2-methylpropan-2-yl)oxy)ethyl)-4-methyl-1,2,5-oxadiazole-3-carboxamide], for which the IC50 is less than 50 nM at IL-17A : IL-17RA binding and 50 to 100 nM in test [1] (Homo sapiens, Keratinocyte).
For the compound `O=C(CC1CC(F)(F)C1)N[C@@H](c1ccc2[nH]c([C@@H](NC(=O)c3nonc3OCC(F)F)C3CCC(F)(F)CC3)nc2c1)C1CC1` [Example 144, N—((S)-(5-((R)-Cyclopropyl(2-(3,3-difluorocyclobutyl)acetamido)methyl)-1H-benzo[d]imidazol-2-yl)(4,4-difluorocyclohexyl)methyl)-4-(2,2-difluoroethoxy)-1,2,5-oxadiazole-3-carboxamide], the IC50 on IL-17A : IL-17RA binding was greater than 100 nM; in test [1] (Homo sapiens, Keratinocyte), less than 50 nM.
For `C[C@@H](NC(=O)CCC(F)(F)F)c1ccc2[nH]c([C@@H](NC(=O)[C@@H]3C[C@H]3F)C3CCC(F)(F)CC3)nc2c1` [Example 100, (1S,2R)—N—((S)-(4,4-Difluorocyclohexyl)(5-((R)-1-(4,4,4-trifluorobutanamido)ethyl)-1H-benzo[d]imidazol-2-yl)methyl)-2-fluorocyclopropane-1-carboxamide], in that order: greater than 100 nM and greater than 100 nM.
For the compound `CCC(NC(=O)CCC(F)(F)F)c1ccc2[nH]c([C@@H](NC(=O)c3ccnn3C)C3CCC(F)(F)CC3)nc2c1` (single isomer, unassigned) [Example 53, N—((S)-(4,4-Difluorocyclohexyl)(5-((R*)-1-(4,4,4-trifluorobutanamido)propyl)-1H-benzo[d]imidazol-2-yl)methyl)-1-methyl-1H-pyrazole-5-carboxamide], the figures for the IC50 (at IL-17A : IL-17RA binding; in test [1]) were greater than 100 nM and 50 to 100 nM, respectively.
As for `CC(C)n1nccc1C(=O)N[C@@H](COC(C)(C)C(F)(F)F)c1nc2cc([C@H](NC(=O)CC3CC(F)(F)C3)C3CC3)ccc2[nH]1` [Example 160, N—((R)-1-(5-((R)-Cyclopropyl(2-(3,3-difluorocyclobutyl)acetamido)methyl)-1H-benzo[d]imidazol-2-yl)-2-((1,1,1-trifluoro-2-methylpropan-2-yl)oxy)ethyl)-1-isopropyl-1H-pyrazole-5-carboxamide], the IC50 on IL-17A : IL-17RA binding was less than 50 nM; in test [1] (Homo sapiens, Keratinocyte) it was less than 50 nM.
Regarding `CCc1nonc1C(=O)N[C@@H](CC(C)(C)C(F)(F)F)c1nc2cc([C@H](NC(=O)CCC(F)(F)F)C3CC3)ccc2[nH]1` (relative stereo) [Example 190, N—((S*)-1-(5-((R*)-Cyclopropyl(4,4,4-trifluorobutanamido)methyl)-1H-benzo[d]imidazol-2-yl)-4,4,4-trifluoro-3,3-dimethylbutyl)-4-ethyl-1,2,5-oxadiazole-3-carboxamide], the IC50 on IL-17A : IL-17RA binding is less than 50 nM; in test [1] (Homo sapiens, Keratinocyte) it was less than 50 nM.
Regarding `Cc1nonc1C(=O)N[C@@H](CC(C)(C)C(F)(F)F)c1nc2ccc([C@H](NC(=O)CC3CC3(F)F)C3CC3)cc2[nH]1` (single isomer, unassigned) [Example 184, N—((S)-1-(6-((R)-Cyclopropyl(2-((S*)-2,2-difluorocyclopropyl)acetamido)methyl)-1H-benzo[d]imidazol-2-yl)-4,4,4-trifluoro-3,3-dimethylbutyl)-4-methyl-1,2,5-oxadiazole-3-carboxamide], the IC50 on IL-17A : IL-17RA binding was 50 to 100 nM; in test [1] it was greater than 100 nM.
Consider `CC(CC(=O)N[C@H](C)c1ccc2nc([C@@H](NC(=O)c3ccnn3CC(F)(F)F)C3CCC(F)(F)CC3)[nH]c2c1)C(F)(F)F` (single isomer, unassigned) [Example 137, N—((S)-(4,4-Difluorocyclohexyl)(6-((R)-1-((S*)-4,4,4-trifluoro-3-methylbutanamido)ethyl)-1H-benzo[d]imidazol-2-yl)methyl)-1-(2,2,2-trifluoroethyl)-1H-pyrazole-5-carboxamide], for which the results for the IC50 (at IL-17A : IL-17RA binding; in test [1]) were greater than 100 nM and 50 to 100 nM, respectively.
For `C[C@@H](NC(=O)CCC(F)(F)F)c1ccc2[nH]c([C@@H](NC(=O)C3CC34CCC4)C3CCC(F)(F)CC3)nc2c1` (stereo partly drawn) [Example 111, N—((S)-(4,4-Difluorocyclohexyl)(5-((R)-1-(4,4,4-trifluorobutanamido)ethyl)-1H-benzo[d]imidazol-2-yl)methyl)spiro[2.3]hexane-1-carboxamide], the IC50 was greater than 100 nM on IL-17A : IL-17RA binding and greater than 100 nM in test [1] (Homo sapiens, Keratinocyte).
Consider `CC(CC(=O)N[C@H](C)c1ccc2nc([C@@H](NC(=O)c3ccnn3CCC(F)(F)F)C3CCC(F)(F)CC3)[nH]c2c1)C(F)(F)F` (single isomer, unassigned) [Example 134, N—((S)-(4,4-Difluorocyclohexyl)(6-((R)-1-((R*)-4,4,4-trifluoro-3-methylbutanamido)ethyl)-1H-benzo[d]imidazol-2-yl)methyl)-1-(3,3,3-trifluoropropyl)-1H-pyrazole-5-carboxamide], for which the IC50 was greater than 100 nM on IL-17A : IL-17RA binding and greater than 100 nM in test [1] (Homo sapiens, Keratinocyte).
For `CC(C)n1nccc1C(=O)N[C@@H](COC1CC(F)(F)C1)c1nc2ccc([C@H](NC(=O)CC3CC(F)(F)C3)C3CC3)cc2[nH]1` [Example 257, N—((R)-1-(6-((R)-Cyclopropyl(2-(3,3-difluorocyclobutyl)acetamido)methyl)-1H-benzo[d]imidazol-2-yl)-2-(3,3-difluorocyclobutoxy)ethyl)-1-isopropyl-1H-pyrazole-5-carboxamide], the IC50 on IL-17A : IL-17RA binding is greater than 100 nM; in test [1] (Homo sapiens, Keratinocyte), greater than 100 nM.
`C[C@@H](NC(=O)CCC(F)(F)F)c1ccc2[nH]c([C@@H](NC(=O)[C@@H]3C[C@H]3C(F)(F)F)C3CCC(F)(F)CC3)nc2c1` (relative stereo) [Example 106, trans-(1R*,2R*)—N—((S)-(4,4-Difluorocyclohexyl)(5-((R)-1-(4,4,4-trifluorobutanamido)ethyl)-1H-benzo[d]imidazol-2-yl)methyl)-2-(trifluoromethyl)cyclopropane-1-carboxamide]: the IC50 was greater than 100 nM at IL-17A : IL-17RA binding and greater than 100 nM in test [1] (Homo sapiens, Keratinocyte).
`CC(Cn1ncc(C(=O)N[C@H](c2nc3ccc([C@@H](C)NC(=O)CCC(F)(F)F)cc3[nH]2)C2CCC(F)(F)CC2)n1)C(F)(F)F` (single isomer, unassigned) [Example 70, N—((S)-(4,4-Difluorocyclohexyl)(6-((R)-1-(4,4,4-trifluorobutanamido)ethyl)-1H-benzo[d]imidazol-2-yl)methyl)-2-((S*)-3,3,3-trifluoro-2-methylpropyl)-2H-1,2,3-triazole-4-carboxamide]: the IC50 (at IL-17A : IL-17RA binding; in test [1]) was greater than 100 nM each time.
As to `C[C@@H](NC(=O)CCC(F)(F)F)c1ccc2[nH]c([C@@H](NC(=O)C3(C)CC3)C3CCC(F)(F)CC3)nc2c1` [Example 95, N—((S)-(4,4-Difluorocyclohexyl)(5-((R)-1-(4,4,4-trifluorobutanamido)ethyl)-1H-benzo[d]imidazol-2-yl)methyl)-1-methylcyclopropane-1-carboxamide], the IC50 at IL-17A : IL-17RA binding is greater than 100 nM; in test [1] (Homo sapiens, Keratinocyte) it was greater than 100 nM.
For the compound `Cc1nonc1C(=O)N[C@@H](CC(C)(C)C(F)(F)F)c1nc2ccc([C@H](NC(=O)CC3CC3(F)F)C3CC3)cc2[nH]1` (single isomer, unassigned) [Example 183, N—((S)-1-(6-((R)-Cyclopropyl(2-((R*)-2,2-difluorocyclopropyl)acetamido)methyl)-1H-benzo[d]imidazol-2-yl)-4,4,4-trifluoro-3,3-dimethylbutyl)-4-methyl-1,2,5-oxadiazole-3-carboxamide], the IC50 is less than 50 nM on IL-17A : IL-17RA binding and greater than 100 nM in test [1] (Homo sapiens, Keratinocyte).
The matching figures for `C[C@@H](NC(=O)CCC(F)(F)F)c1ccc2[nH]c([C@@H](NC(=O)C3CC34CC4)C3CCC(F)(F)CC3)nc2c1` (stereo partly drawn) [Example 110, N—((S)-(4,4-Difluorocyclohexyl)(5-((R)-1-(4,4,4-trifluorobutanamido)ethyl)-1H-benzo[d]imidazol-2-yl)methyl)spiro[2.2]pentane-1-carboxamide]: greater than 100 nM and greater than 100 nM.
Turning to `CC(C)n1cncc1C(=O)N[C@H](c1nc2cc([C@@H](C)NC(=O)CCC(F)(F)F)ccc2[nH]1)C1CCC(F)(F)CC1` [Example 208, N—((S)-(4,4-Difluorocyclohexyl)(5-((R)-1-(4,4,4-trifluorobutanamido)ethyl)-1H-benzo[d]imidazol-2-yl)methyl)-1-isopropyl-1H-imidazole-5-carboxamide], the IC50 at IL-17A : IL-17RA binding is greater than 100 nM; in test [1] (Homo sapiens, Keratinocyte) it was greater than 100 nM.
Regarding `C[C@@H](NC(=O)CCC(F)(F)F)c1ccc2[nH]c([C@@H](NC(=O)c3cn(CC(F)(F)F)nn3)C3CCC(F)(F)CC3)nc2c1` [Example 24, N—[(S)-(4,4-Difluorocyclohexyl)-[6-[(1R)-1-(4,4,4-trifluorobutanoylamino)ethyl]-1H-benzimidazol-2-yl]methyl]-1-(2,2,2-trifluoroethyl)triazole-4-carboxamide], the IC50 at IL-17A : IL-17RA binding was greater than 100 nM; in test [1] (Homo sapiens, Keratinocyte) it was greater than 100 nM.
For `Cc1nonc1C(=O)N[C@@H](c1nc2ccc([C@H](NC(=O)CC3CC(F)(F)C3)C3CC3)cc2[nH]1)[C@@H]1CCCCO1` (relative stereo) [Example 249, N—((S*)-(6-((R)-Cyclopropyl(2-(3,3-difluorocyclobutyl)acetamido)methyl)-1H-benzo[d]imidazol-2-yl)((S*)-tetrahydro-2H-pyran-2-yl)methyl)-4-methyl-1,2,5-oxadiazole-3-carboxamide], the IC50 on IL-17A : IL-17RA binding was greater than 100 nM; in test [1] (Homo sapiens, Keratinocyte) it was greater than 100 nM.
